Experimental data from ChEMBL document CHEMBL4368910, “Discovery of ( R)-8-(6-Methyl-4-oxo-1,4,5,6-tetrahydropyrrolo[3,4- b]pyrrol-2-yl)-3-(1-methylcyclopropyl)-2-((1-methylcyclopropyl)amino)quinazolin-4(3 H)-one, a Potent and Selective Pim-1/2 Kinase Inhibitor for Hematological Malignancies” (J Med Chem, 2019).
Converted amounts (≈) assume the structure as drawn.

Columns and labels:
[1] = Solubility of the compound in phosphate buffer solution at pH 7.4 incubated for 1 hr in shaker and subsequently equilibrated for 72 hrs by LC/MS analysis; format: physicochemical
[2] = Solubility of the compound in fasted state simulated intestinal fluid at pH 6.8 incubated for 1 hr in shaker and subsequently equilibrated for 72 hrs by LC/MS analysis; format: physicochemical
[3] = Solubility of the compound in 0.01N HCl at pH 2 incubated for 1 hr in shaker and subsequently equilibrated for 72 hrs by LC/MS analysis; format: physicochemical
[4] = Apparent permeability in pig LLC-PK1 cells at 5 uM; format: ADME, cell-based, Sus scrofa
[5] = Volume of distribution at steady state in Sprague-Dawley rat; format: ADME; details: in vivo, read-out: Vdss
[6] = Oral bioavailability in Sprague-Dawley rat at 5 mg/kg; format: ADME, organism-based; details: in vivo
[7] = Volume of distribution at steady state in dog; format: ADME, Canis lupus familiaris; details: in vivo, read-out: Vdss
[8] = Oral bioavailability in dog; format: ADME, organism-based, Canis lupus familiaris; details: in vivo
[9] = Drug uptake in plasma of SCID-Beige mouse xenografted with human KMS-12-BM cells at 25 to 100 mg/kg, po administered once daily for 14 days and measured twice per week; format: ADME, organism-based; details: in vivo, 336 h

Row | Structure (SMILES) | solubility thermodynamic at 72 h [1] [µM] | solubility thermodynamic at 72 h [2] [µM] | solubility thermodynamic at 72 h [3] [µM] | Papp at 5 µM [4] [×10⁻⁶ cm/s] | Vd [5] [L/kg] | bioavailability [6] [%] | Vd [7] [L/kg] | bioavailability [8] [%] | Drug uptake [9]
1 | C[C@H]1NC(=O)c2cc(-c3cccc4c(=O)n(C[C@@H]5CN(C)CCO5)c(NC(C)(C)C)nc34)[nH]c21 | 122 (≈ 56.7 µg/mL) | 283 (≈ 131 µg/mL) | 500 (≈ 232 µg/mL) |  |  |  |  |  | 
2 | C[C@H]1NC(=O)c2cc(-c3cccc4c(=O)n(CC5(N)CC5)c(NC5(C)CC5)nc34)[nH]c21 | 134 (≈ 56.1 µg/mL) | 280 (≈ 117 µg/mL) | 454 (≈ 190 µg/mL) |  |  |  |  |  | 
3 | CC(c1cn(C)cn1)n1c(NC(C)(C)C)nc2c(-c3cc4c([nH]3)[C@@H](C)NC4=O)cccc2c1=O (stereo not given in full) | 86 (≈ 39.5 µg/mL) | 489 (≈ 225 µg/mL) | 423 (≈ 194 µg/mL) |  |  |  |  |  | 
4 | C[C@H]1NC(=O)c2cc(-c3cccc4c(=O)n(CC5(O)CC5)c(NC5(C)CC5)nc34)[nH]c21 | < 5 | 15 (≈ 6.29 µg/mL) | 43 (≈ 18 µg/mL) |  |  |  |  |  | 
5 | C[C@H]1NC(=O)c2cc(-c3cccc4c(=O)n(CC5CC5)c(NC5(C)CC5)nc34)[nH]c21 | 13 (≈ 5.25 µg/mL) | 179 (≈ 72.2 µg/mL) | 214 (≈ 86.3 µg/mL) |  |  |  |  |  | 
6 | C[C@H]1NC(=O)c2cc(-c3cccc4c(=O)n([C@@H](C)c5cn(C)cn5)c(NC5(C)CC5)nc34)[nH]c21 | 60 (≈ 27.5 µg/mL) | 469 (≈ 215 µg/mL) | 464 (≈ 212 µg/mL) | 35 | 1 | 19 |  |  | 
7 | CC(c1cn(C)cn1)n1c(NC2(C)CC2)nc2c(-c3cc4c([nH]3)[C@@H](C)NC4=O)cccc2c1=O (mixture of isomers) | 52 | 500 | 500 |  |  |  |  |  | 
8 | C[C@H]1NC(=O)c2cc(-c3cccc4c(=O)n(Cc5cn(C)cn5)c(NC(C)(C)C)nc34)[nH]c21 | 22 (≈ 9.8 µg/mL) | 131 (≈ 58.4 µg/mL) | 94 (≈ 41.9 µg/mL) |  |  |  |  |  | 
9 | C[C@H]1NC(=O)c2cc(-c3cccc4c(=O)n(C5(C)CC5)c(NC5(C)CC5)nc34)[nH]c21 | 31 (≈ 12.5 µg/mL) | 185 (≈ 74.6 µg/mL) | 490 (≈ 198 µg/mL) | 32 | 1.7 | 85 | 2.1 | 56 | Dose-dependent effect
10 | C[C@H]1NC(=O)c2cc(-c3cccc4c(=O)n(C)c(NC5(C)CC5)nc34)[nH]c21 | 56 (≈ 20.4 µg/mL) | 344 (≈ 125 µg/mL) | 500 (≈ 182 µg/mL) | 31 |  |  |  |  | 
11 | C[C@H]1NC(=O)c2cc(-c3cccc4c(=O)n(C(C)(C)C)c(NC5(C)CC5)nc34)[nH]c21 | < 5 | 326 (≈ 132 µg/mL) | 495 (≈ 201 µg/mL) |  |  |  |  |  | 
12 | C[C@H]1NC(=O)c2cc(-c3cccc4c(=O)n(C[C@H]5CN(C)CCO5)c(NC(C)(C)C)nc34)[nH]c21 | < 5 | < 5 | 256 (≈ 119 µg/mL) |  |  |  |  |  | 
13 | C[C@H](c1cn(C)cn1)n1c(NC2(C)CC2)nc2c(-c3cc4c([nH]3)[C@@H](C)NC4=O)cccc2c1=O | 53 (≈ 24.2 µg/mL) | 435 (≈ 199 µg/mL) | 485 (≈ 222 µg/mL) |  |  |  |  |  | 

The next lines start with the values.

Row | solubility thermodynamic at 72 h [1] [µM] | solubility thermodynamic at 72 h [2] [µM] | solubility thermodynamic at 72 h [3] [µM] | Papp at 5 µM [4] [×10⁻⁶ cm/s] | Vd [5] [L/kg] | bioavailability [6] [%] | Vd [7] [L/kg] | bioavailability [8] [%] | Drug uptake [9] | Structure (SMILES)
14 | < 5 | < 5 | < 5 |  |  |  |  |  |  | C[C@H]1NC(=O)c2cc(-c3cccc4c(=O)n(CC5(O)CC5)c(NC(C)(C)C)nc34)[nH]c21
15 | < 5 | 58 (≈ 23.6 µg/mL) | < 5 |  |  |  |  |  |  | C[C@H]1NC(=O)c2cc(-c3cccc4c(=O)n(C(C)(C)C)c(NC(C)(C)C)nc34)[nH]c21
16 | 78 (≈ 30.4 µg/mL) | 144 (≈ 56.1 µg/mL) | 458 (≈ 178 µg/mL) | 23 | 1.2 | 68 |  |  |  | C[C@H]1NC(=O)c2cc(-c3cccc4c(=O)n(C5CC5)c(NC5(C)CC5)nc34)[nH]c21
17 | 11 (≈ 4.33 µg/mL) | 68 (≈ 26.8 µg/mL) | 26 (≈ 10.2 µg/mL) |  |  |  |  |  |  | CC(C)n1c(NC(C)(C)C)nc2c(-c3cc4c([nH]3)[C@@H](C)NC4=O)cccc2c1=O
18 | 23 (≈ 8.41 µg/mL) | 104 (≈ 38 µg/mL) | 60 (≈ 21.9 µg/mL) | 46 |  |  |  |  |  | C[C@H]1NC(=O)c2cc(-c3cccc4c(=O)n(C)c(NC(C)(C)C)nc34)[nH]c21
19 | 19 (≈ 8.28 µg/mL) | 60 (≈ 26.1 µg/mL) | < 5 |  |  |  |  |  |  | C[C@H]1NC(=O)c2cc(-c3cccc4c(=O)n(C[C@H]5CCCO5)c(NC(C)(C)C)nc34)[nH]c21
20 | < 5 | 42 (≈ 17.7 µg/mL) | 500 (≈ 210 µg/mL) |  |  |  |  |  |  | C[C@H]1NC(=O)c2cc(-c3cccc4c(=O)n(CC5(N)CC5)c(NC(C)(C)C)nc34)[nH]c21
21 | 13 (≈ 5.09 µg/mL) | 175 (≈ 68.5 µg/mL) | 95 (≈ 37.2 µg/mL) |  |  |  |  |  |  | C[C@H]1NC(=O)c2cc(-c3cccc4c(=O)n(C5CC5)c(NC(C)(C)C)nc34)[nH]c21
22 | 26 (≈ 11 µg/mL) | 131 (≈ 55.4 µg/mL) | 347 (≈ 147 µg/mL) |  |  |  |  |  |  | C[C@H]1NC(=O)c2cc(-c3cccc4c(=O)n(CC(C)(C)N)c(NC(C)(C)C)nc34)[nH]c21
23 | < 5 | 36 (≈ 14.6 µg/mL) | < 5 |  |  |  |  |  |  | C[C@H]1NC(=O)c2cc(-c3cccc4c(=O)n(C5(C)CC5)c(NC(C)(C)C)nc34)[nH]c21
24 | < 5 | 379 (≈ 153 µg/mL) | 441 (≈ 178 µg/mL) |  |  |  |  |  |  | C[C@H]1NC(=O)c2cc(-c3cccc4c(=O)n(C5CCC5)c(NC5(C)CC5)nc34)[nH]c21
25 | < 5 | 12 (≈ 4.87 µg/mL) | < 5 |  |  |  |  |  |  | C[C@H]1NC(=O)c2cc(-c3cccc4c(=O)n(CC5CC5)c(NC(C)(C)C)nc34)[nH]c21
26 | 6 (≈ 2.53 µg/mL) | 32 (≈ 13.5 µg/mL) | 14 (≈ 5.9 µg/mL) |  |  |  |  |  |  | C[C@H]1NC(=O)c2cc(-c3cccc4c(=O)n(CC5COC5)c(NC(C)(C)C)nc34)[nH]c21
27 | 12 (≈ 5.23 µg/mL) | 15 (≈ 6.53 µg/mL) | 28 (≈ 12.2 µg/mL) |  |  |  |  |  |  | C[C@H]1NC(=O)c2cc(-c3cccc4c(=O)n(C[C@@H]5CCCO5)c(NC(C)(C)C)nc34)[nH]c21
